{
  "source": "patent US12138398B2",
  "about": "“Methods and devices for providing a stimulus to a subject to induce gamma oscillations” (Massachusetts Institute of Technology, priority 2015, dated 2024)",
  "format_in_all_cases": "in vivo, mouse",
  "key": {"CK-p25 Tg mice [1]": {"test_system": "CK-p25 Tg mice", "assay": "γH2AX-positive cells (DNA damage) in CK-p25 Tg mice", "method": "A study was conducted to examine the effect of gamma exposure and/or administration in accordance with some embodiments on DNA damage and neuronal loss in the visual cortex of a subject. For the study, an inducible mouse model of p25 accumulation (i.e., a creatine kinase carboxyl-terminal fragment p25 Tg mouse (CK-p25 Tg mouse)) was used. […] A study was conducted to compare groups of mice under different treatment regimens. FIG. 84 is a diagram of the groups including CK-control mice 8400, untreated CK-p25 Tg mice 8402, CK-p25 Tg mice treated with memantine (10 mg/kg daily) 8404, CK-p25 Tg mice exposed to the 40-Hz light flicker (one hour daily for 6 weeks) in accordance with some embodiments 8406, and CK-p25 Tg mice treated with memantine and also exposed to the 40-Hz light flicker 8408. Memantine is a medication used with limited success to treat severe AD by blocking NMDA receptors, thereby acting on the glutamatergic system. DNA double strand breaks (DSB) are one example of DNA damage in eukaryotic cells, causing genomic instability, leading to tumorigenesis and possibly accelerated aging. Phosphorylated histone H2AX (γH2AX) was used as a biomarker of cellular response to DSB. FIG. 99 is bar graph comparing the amount of γH2AX-positive cells in CK-control mice, untreated CK-p25 Tg mice, CK-p25 Tg mice treated with memantine, CK-p25 Tg mice exposed to the 40-Hz light flicker in accordance with some embodiments, and CK-p25 Tg mice treated with both memantine and the 40-Hz light flicker. Cells positive for γH2AX were almost non-existent in CK-control mice, but very high in untreated CK-p25 Tg mice, indicating high amounts of DSB and other DNA damage. Treatment with memantine reduced the amount of γH2AX-positive cells in CK-p25 Tg mice compared to the untreated group. […] Thus, FIG. 99 illustrates how 40-Hz visual flicker treatment in accordance with some embodiments can reduce DNA damage in the visual cortex."}, "CK-p25 Tg mice [2]": {"test_system": "CK-p25 Tg mice", "assay": "Cortical (Hoechst) and neuronal (NeuN) layer thickness in CK-p25 Tg mice", "details": "for thickness of neuronal layer of the insular cortex / thickness of SS1-neuronal layer: NeuN; for thickness of SS1-neuronal layer / thickness of SS1-cortical layer: somatosensory cortex"}, "CK-p25 Tg mice [3]": {"test_system": "CK-p25 Tg mice", "assay": "NeuN-positive cells (neuronal loss) in CK-p25 Tg mice", "method": "A study was conducted to examine the effect of gamma exposure and/or administration in accordance with some embodiments on DNA damage and neuronal loss in the visual cortex of a subject. For the study, an inducible mouse model of p25 accumulation (i.e., a creatine kinase carboxyl-terminal fragment p25 Tg mouse (CK-p25 Tg mouse)) was used. […] A study was conducted to compare groups of mice under different treatment regimens. FIG. 84 is a diagram of the groups including CK-control mice 8400, untreated CK-p25 Tg mice 8402, CK-p25 Tg mice treated with memantine (10 mg/kg daily) 8404, CK-p25 Tg mice exposed to the 40-Hz light flicker (one hour daily for 6 weeks) in accordance with some embodiments 8406, and CK-p25 Tg mice treated with memantine and also exposed to the 40-Hz light flicker 8408. Memantine is a medication used with limited success to treat severe AD by blocking NMDA receptors, thereby acting on the glutamatergic system. FIG. 98 is a bar graph comparing the amount of NeuN-positive cells as a percentage of the NeuN-positive cells in CK-control mice for the CK-control mice, untreated CK-p25 Tg mice, CK-p25 Tg mice treated with memantine, CK-p25 Tg mice exposed to the 40-Hz light flicker in accordance with some embodiments, and CK-p25 Tg mice treated with both memantine and the 40-Hz light flicker. Thus, the percentage of the CK-control mice NeuN-positive cells are 100% in the CK-control mice, but only about 80% in untreated CK-p25 Tg mice, corroborating neuronal loss in the CK-p25 Tg mouse model. […] Thus, FIG. 98 illustrates how 40-Hz visual flicker treatment in accordance with some embodiments can preserve neurons in the visual cortex."}, "CK-p25 Tg mice [4]": {"test_system": "CK-p25 Tg mice", "assay": "Cortical (Hoechst) and neuronal (NeuN) layer thickness in CK-p25 Tg mice", "details": "visual cortex; for thickness of V1-neuronal layer: NeuN", "method": "A study was conducted to examine the effect of gamma exposure and/or administration in accordance with some embodiments on DNA damage and neuronal loss in the visual cortex of a subject. For the study, an inducible mouse model of p25 accumulation (i.e., a creatine kinase carboxyl-terminal fragment p25 Tg mouse (CK-p25 Tg mouse)) was used.\nA study was conducted to compare groups of mice under different treatment regimens. FIG. 84 is a diagram of the groups including CK-control mice 8400, untreated CK-p25 Tg mice 8402, CK-p25 Tg mice treated with memantine (10 mg/kg daily) 8404, CK-p25 Tg mice exposed to the 40-Hz light flicker (one hour daily for 6 weeks) in accordance with some embodiments 8406, and CK-p25 Tg mice treated with memantine and also exposed to the 40-Hz light flicker 8408. Memantine is a medication used with limited success to treat severe AD by blocking NMDA receptors, thereby acting on the glutamatergic system.\nCortical layer loss was gauged using nuclear staining with Hoechst labels (i.e., blue fluorescent dyes used to stain DNA). Neuronal layer loss was gauged using NeuN, a neuronal nuclear antigen that is commonly used as a biomarker for neurons. FIG. 89 is a bar graph depicting average thickness of the V1-cortical layer in each group, and FIG. 90 is a bar graph depicting average thickness of the V1-NeuN-positive cell layer in each group."}, "[5]": {"details": "memantine + 40-Hz light flicker"}, "[6]": {"details": "memantine alone, compared to untreated CK-p25 Tg"}},
  "data": [
    {"smiles": "CC12CC3CC(C)(C1)CC(N)(C3)C2", "note": "[memantine]", "values": [
      {"measurement": "number of γH2AX-positive cells in hippocampus", "setting": "CK-p25 Tg mice [1]; [5]", "value": "significantly increased"},
      {"measurement": "number of γH2AX-positive cells in insular cortex", "setting": "CK-p25 Tg mice [1]; [5]", "value": "significantly increased"},
      {"measurement": "number of γH2AX-positive cells in somatosensory cortex", "setting": "CK-p25 Tg mice [1]; [5]", "value": "significantly increased"},
      {"measurement": "number of γH2AX-positive cells in visual cortex", "setting": "CK-p25 Tg mice [1]; [5]", "value": "significantly increased"},
      {"measurement": "amount of γH2AX-positive cells in hippocampus", "setting": "CK-p25 Tg mice [1]; [6]", "value": "reduced"},
      {"measurement": "amount of γH2AX-positive cells in insular cortex", "setting": "CK-p25 Tg mice [1]; [6]", "value": "reduced"},
      {"measurement": "amount of γH2AX-positive cells in somatosensory cortex", "setting": "CK-p25 Tg mice [1]; [6]", "value": "reduced"},
      {"measurement": "amount of γH2AX-positive cells in visual cortex", "setting": "CK-p25 Tg mice [1]; [6]", "value": "reduced"},
      {"measurement": "thickness of neuronal layer of the insular cortex", "setting": "CK-p25 Tg mice [2]; [5]", "value": "848 ± 15", "unit": "µm"},
      {"measurement": "thickness of neuronal layer of the insular cortex", "setting": "CK-p25 Tg mice [2]; memantine alone", "value": "850 ± 18", "unit": "µm"},
      {"measurement": "thickness of cortical layer of the insular cortex", "setting": "CK-p25 Tg mice [2]; [5]", "value": "965 ± 16", "unit": "µm"},
      {"measurement": "thickness of cortical layer of the insular cortex", "setting": "CK-p25 Tg mice [2]; memantine alone", "value": "983 ± 12", "unit": "µm"},
      {"measurement": "thickness of SS1-neuronal layer", "setting": "CK-p25 Tg mice [2]; [5]", "value": "650 ± 11", "unit": "µm"},
      {"measurement": "thickness of SS1-neuronal layer", "setting": "CK-p25 Tg mice [2]; memantine alone", "value": "629 ± 9", "unit": "µm"},
      {"measurement": "thickness of SS1-cortical layer", "setting": "CK-p25 Tg mice [2]; [5]", "value": "778 ± 13", "unit": "µm"},
      {"measurement": "thickness of SS1-cortical layer", "setting": "CK-p25 Tg mice [2]; memantine alone", "value": "756 ± 11", "unit": "µm"},
      {"measurement": "neuronal loss (NeuN-positive cells) in hippocampus", "setting": "CK-p25 Tg mice [3]; [5]", "value": "prevented some neuronal loss"},
      {"measurement": "neuronal loss (NeuN-positive cells) in insular cortex", "setting": "CK-p25 Tg mice [3]; [5]", "value": "prevented the least neuronal loss"},
      {"measurement": "neuronal loss (NeuN-positive cells) in somatosensory cortex", "setting": "CK-p25 Tg mice [3]; [5]", "value": "prevented most neuronal loss"},
      {"measurement": "neuronal loss (NeuN-positive cells) in visual cortex", "setting": "CK-p25 Tg mice [3]; [5]", "value": "failed to prevent as much neuronal loss"},
      {"measurement": "neuronal loss (NeuN-positive cells) in hippocampus", "setting": "CK-p25 Tg mice [3]; [6]", "value": "prevented some neuronal loss"},
      {"measurement": "neuronal loss (NeuN-positive cells) in insular cortex", "setting": "CK-p25 Tg mice [3]; [6]", "value": "prevented some neuronal loss"},
      {"measurement": "neuronal loss (NeuN-positive cells) in somatosensory cortex", "setting": "CK-p25 Tg mice [3]; [6]", "value": "failed to prevent any neuronal loss"},
      {"measurement": "neuronal loss (NeuN-positive cells) in visual cortex", "setting": "CK-p25 Tg mice [3]; [6]", "value": "prevented some neuronal loss"},
      {"measurement": "thickness of V1-neuronal layer", "setting": "CK-p25 Tg mice [4]; [5]", "value": "691 ± 20", "unit": "µm"},
      {"measurement": "thickness of V1-neuronal layer", "setting": "CK-p25 Tg mice [4]; memantine alone", "value": "660 ± 7", "unit": "µm"},
      {"measurement": "thickness of V1-cortical layer", "setting": "CK-p25 Tg mice [4]; [5]", "value": "821 ± 22", "unit": "µm"},
      {"measurement": "thickness of V1-cortical layer", "setting": "CK-p25 Tg mice [4]; memantine alone", "value": "788 ± 9", "unit": "µm"}
    ]}
  ]
}
